These results are taken from US10653717B2, “Antibiotic compositions” (priority 2016, dated 2020).

What all share (test): Drug sensitivity of clinical isolated strain
The test system of assay [1] is KP-1: Klebsiella pneumonia subsp. pneumonia 13#. In kind it is cell-based. Conditions: KP-1 (Table 3).
In assay [2] the test system is KP-2: K. pneumonia subsp. pneumonia 0322#. The format is cell-based, Klebsiella pneumonia.
For assay [3], the system named is AB-1: Acinetobacter baumannii H#. In kind it is cell-based.
For the next assay, the system named is AB-2: A. baumannii 0361#. In kind it is cell-based, Acinetobacter baumannii. The conditions noted are these: AB-2 (Table 3).
The test system of assay [4] is PA-1: Pseudomonas aeruginose 1298#. The format is cell-based, Pseudomonas aeruginosa.
Assay [5] has as its system PA-2: P. aeruginose 0009#. The format is cell-based, Pseudomonas aeruginosa. The conditions noted are these: PA-2 (Table 3).
The test system of assay [6] is ECO-1: Escherichia coli 1139#. In kind it is cell-based.
In another assay the test system is ECO-2: E. coli 2219#. The format is cell-based, Escherichia coli. Conditions: ECO-2 (Table 3).
The next assay concerns ECO-3: E. coli ZY-1. The format is cell-based, Escherichia coli.
Assay [7] has as its system ECL-1: Enterobacter cloacae 0431#. The format is cell-based. Conditions: ECL-1 (Table 3).
The subject of the next assay is ECL-2: E. cloacae 2301#. The format is cell-based, Enterobacter cloacae.
Note: key: R: resistant; S: sensitive.

Take `Cc1nnc(SCC2=C(C(=O)O)N3C(=O)[C@@H](NC(=O)Cn4cnnn4)[C@H]3SC2)s1` [Cefazolin]: the Drug sensitivity entry (in assay [1]; in assay [2] (KP-2 (Table 3)); in assay [2] (KP-2 (table of Example 3)); in assay [3] (AB-1 (Table 3)); in assay [3] (AB-1 (table of Example 3)); in the assay on AB-2: A. baumannii 0361#) was “R” throughout. Also, the Drug sensitivity entry (in assay [4] (PA-1 (Table 3)); in assay [4] (PA-1 (table of Example 3)); in assay [5]; in [6] (ECO-1 (Table 3)); in assay [6] (ECO-1 (table of Example 3)); with ECO-2: E. coli 2219#) was “R” each time. Further, the Drug sensitivity entry with ECO-3: E. coli ZY-1 (E. coli ZY-1 (Table 7)) and in the assay on ECO-3: E. coli ZY-1 (ECO-3 (Table 3)) was “S” each time.

In the case of `C[C@@H](O)[C@H]1C(=O)N2C(C(=O)O)=C(SCCN=CN)C[C@H]12` [Imipenem], the Drug sensitivity result in assay [1] was “R”; in [2] (KP-2 (Table 3)), “S”; in assay [2] (KP-2 (table of Example 3)), “S”; in [3] (AB-1 (Table 3)), “R”; in [3] (AB-1 (table of Example 3)) it was “R”; in the assay with AB-2: A. baumannii 0361#, “R”. In addition, the Drug sensitivity result in [4] (PA-1 (Table 3)) is recorded as “S”; in assay [4] (PA-1 (table of Example 3)), “S”; in assay [7], “S”; in the assay with ECL-2: E. cloacae 2301# (ECL-2 (Table 3)) it was “R”; with ECL-2: E. cloacae 2301# (ECL-2 (table of Example 3)) it was “R”; in assay [6] (ECO-1 (Table 3)) it was “S”. For the same compound, the Drug sensitivity entry (in [6] (ECO-1 (table of Example 3)); in the assay with ECO-2: E. coli 2219#; in the assay on ECO-3: E. coli ZY-1 (E. coli ZY-1 (Table 7)); in the assay with ECO-3: E. coli ZY-1 (ECO-3 (Table 3))) was “S” throughout.

`Nc1ccc(S(N)(=O)=O)cc1` [Sulfanilamide]: the Drug sensitivity result is recorded as “S” with AB-2: A. baumannii 0361#; “R” in assay [4] (PA-1 (Table 3)); “R” in assay [4] (PA-1 (table of Example 3)); “R” in [5]; “R” in assay [7]; “R” in the assay with ECL-2: E. cloacae 2301# (ECL-2 (Table 3)). Moreover, the Drug sensitivity entry (in the assay on ECL-2: E. cloacae 2301# (ECL-2 (table of Example 3)); in [6] (ECO-1 (Table 3)); in assay [6] (ECO-1 (table of Example 3)); with ECO-2: E. coli 2219#; in the assay on ECO-3: E. coli ZY-1 (E. coli ZY-1 (Table 7)); in the assay on ECO-3: E. coli ZY-1 (ECO-3 (Table 3))) was “R” throughout.

Take `CC1(C)S[C@@H]2[C@H](NC(=O)[C@H](N)c3ccccc3)C(=O)N2[C@H]1C(=O)O` [Ampicillin]: the Drug sensitivity entry (in [1]; in assay [2] (KP-2 (Table 3)); in [2] (KP-2 (table of Example 3)); in assay [3] (AB-1 (Table 3)); in [3] (AB-1 (table of Example 3)); with AB-2: A. baumannii 0361#) was “R” throughout. The Drug sensitivity result is “R/S” in assay [4] (PA-1 (Table 3)); “R/S” in assay [4] (PA-1 (table of Example 3)); “R” in assay [5]; “S” in assay [6] (ECO-1 (Table 3)); “S” in assay [6] (ECO-1 (table of Example 3)); “R” in the assay on ECO-2: E. coli 2219#. The Drug sensitivity entry in the assay on ECO-3: E. coli ZY-1 (E. coli ZY-1 (Table 7)) and in the assay on ECO-3: E. coli ZY-1 (ECO-3 (Table 3)) was “S” throughout.

As for Polymyxin, the Drug sensitivity result (in assay [3] (AB-1 (Table 3)); in assay [3] (AB-1 (table of Example 3)); in the assay on AB-2: A. baumannii 0361#; in assay [4] (PA-1 (Table 3)); in assay [4] (PA-1 (table of Example 3)); in assay [5]) was “S” in each case. Further, the Drug sensitivity result in assay [7] is “R”; in the assay with ECL-2: E. cloacae 2301# (ECL-2 (Table 3)), “S”; with ECL-2: E. cloacae 2301# (ECL-2 (table of Example 3)), “S”.

Take `C[C@H]1COc2c(N3CCN(C)CC3)c(F)cc3c(=O)c(C(=O)O)cn1c23` [Levofloxacin]: the Drug sensitivity result (in assay [1]; in assay [2] (KP-2 (Table 3)); in assay [2] (KP-2 (table of Example 3)); in [3] (AB-1 (Table 3)); in assay [3] (AB-1 (table of Example 3)); in the assay with AB-2: A. baumannii 0361#) was “R” in each case. Further, the Drug sensitivity result (in assay [4] (PA-1 (Table 3)); in assay [4] (PA-1 (table of Example 3)); in [5]; in [7]; with ECL-2: E. cloacae 2301# (ECL-2 (Table 3)); in the assay with ECL-2: E. cloacae 2301# (ECL-2 (table of Example 3))) was “R” throughout. For the same compound, the Drug sensitivity entry in assay [6] (ECO-1 (Table 3)) is recorded as “R”; in assay [6] (ECO-1 (table of Example 3)), “R”; in the assay on ECO-2: E. coli 2219# it was “R”; with ECO-3: E. coli ZY-1 (E. coli ZY-1 (Table 7)), “S”.

For `CCN1CCN(C(=O)N[C@@H](C(=O)N[C@@H]2C(=O)N3[C@@H]2SC(C)(C)[C@@H]3C(=O)O)c2ccccc2)C(=O)C1=O` [Piperacillin], the Drug sensitivity result (in assay [1]; in assay [2] (KP-2 (Table 3)); in assay [2] (KP-2 (table of Example 3)); in [3] (AB-1 (Table 3)); in assay [3] (AB-1 (table of Example 3)); in the assay on AB-2: A. baumannii 0361#) was “R” throughout. The Drug sensitivity result in [4] (PA-1 (Table 3)) is listed as “R/S”; in assay [4] (PA-1 (table of Example 3)) it was “R/S”; in assay [5] it was “R”; in [7], “R”; with ECL-2: E. cloacae 2301# (ECL-2 (Table 3)) it was “R”; in the assay with ECL-2: E. cloacae 2301# (ECL-2 (table of Example 3)), “R”. Further, the Drug sensitivity entry is on record as “R” in [6] (ECO-1 (Table 3)); “R” in [6] (ECO-1 (table of Example 3)); “R” in the assay with ECO-2: E. coli 2219#; “S” with ECO-3: E. coli ZY-1 (E. coli ZY-1 (Table 7)); “S” in the assay with ECO-3: E. coli ZY-1 (ECO-3 (Table 3)).

Consider `CC1(C)[C@H](C(=O)O)N2C(=O)C[C@H]2S1(=O)=O` [Sulbactam], for which the Drug sensitivity result in assay [1] is listed as “R”; in assay [2] (KP-2 (Table 3)) it was “R”; in assay [2] (KP-2 (table of Example 3)), “R”; in [3] (AB-1 (Table 3)), “R”; in assay [3] (AB-1 (table of Example 3)) it was “R”; in assay [6] (ECO-1 (Table 3)), “R/S”. Also, the Drug sensitivity result in assay [6] (ECO-1 (table of Example 3)) was “R/S”; in the assay with ECO-2: E. coli 2219#, “R”; in the assay with ECO-3: E. coli ZY-1 (E. coli ZY-1 (Table 7)), “S”; in the assay on ECO-3: E. coli ZY-1 (ECO-3 (Table 3)), “S”.

Take `C[C@H]1[C@H](NC(=O)/C(=N\OC(C)(C)C(=O)O)c2csc(N)n2)C(=O)N1S(=O)(=O)O` [Aztreonam]: the Drug sensitivity result (in [3] (AB-1 (Table 3)); in assay [3] (AB-1 (table of Example 3)); in the assay on AB-2: A. baumannii 0361#; in [4] (PA-1 (Table 3)); in [4] (PA-1 (table of Example 3)); in assay [5]) was “R” in each case. Besides, the Drug sensitivity entry (in assay [7]; with ECL-2: E. cloacae 2301# (ECL-2 (Table 3)); in the assay on ECL-2: E. cloacae 2301# (ECL-2 (table of Example 3)); in assay [6] (ECO-1 (Table 3)); in assay [6] (ECO-1 (table of Example 3)); with ECO-2: E. coli 2219#) was “R” throughout. The Drug sensitivity entry in the assay on ECO-3: E. coli ZY-1 (E. coli ZY-1 (Table 7)) and in the assay on ECO-3: E. coli ZY-1 (ECO-3 (Table 3)) was “S” in each case.

Turning to `CC(C)(O/N=C(\C(=O)N[C@@H]1C(=O)N2C(C(=O)[O-])=C(C[n+]3ccccc3)CS[C@H]12)c1csc(N)n1)C(=O)O` [Ceftazidime], the Drug sensitivity result (in [1]; in [2] (KP-2 (Table 3)); in assay [2] (KP-2 (table of Example 3)); in [3] (AB-1 (Table 3)); in [3] (AB-1 (table of Example 3)); with AB-2: A. baumannii 0361#) was “R” each time. Also, the Drug sensitivity entry (in [4] (PA-1 (Table 3)); in assay [4] (PA-1 (table of Example 3)); in assay [5]; in assay [7]; with ECL-2: E. cloacae 2301# (ECL-2 (Table 3)); with ECL-2: E. cloacae 2301# (ECL-2 (table of Example 3))) was “R” throughout. Moreover, the Drug sensitivity entry in [6] (ECO-1 (Table 3)) is “R/S”; in assay [6] (ECO-1 (table of Example 3)), “R/S”; with ECO-2: E. coli 2219# it was “R”; in the assay with ECO-3: E. coli ZY-1 (E. coli ZY-1 (Table 7)) it was “S”; with ECO-3: E. coli ZY-1 (ECO-3 (Table 3)), “S”.

For `C[C@@H](O)[C@H]1C(=O)N2C(C(=O)O)=C(S[C@@H]3CN[C@H](C(=O)N(C)C)C3)[C@H](C)[C@H]12` [Meropenem], the Drug sensitivity entry in assay [1] is given as “R”; in [2] (KP-2 (Table 3)), “S”; in assay [2] (KP-2 (table of Example 3)), “S”; in assay [3] (AB-1 (Table 3)) it was “R”; in assay [3] (AB-1 (table of Example 3)), “R”; in the assay with AB-2: A. baumannii 0361#, “R”. The Drug sensitivity entry in assay [4] (PA-1 (Table 3)) was “R”; in [4] (PA-1 (table of Example 3)) it was “R”; in [5], “R/S”; in assay [7], “S”; in the assay on ECL-2: E. cloacae 2301# (ECL-2 (Table 3)), “R”; in the assay with ECL-2: E. cloacae 2301# (ECL-2 (table of Example 3)), “R”. In addition, the Drug sensitivity result (in [6] (ECO-1 (Table 3)); in assay [6] (ECO-1 (table of Example 3)); in the assay on ECO-2: E. coli 2219#; in the assay on ECO-3: E. coli ZY-1 (E. coli ZY-1 (Table 7)); in the assay on ECO-3: E. coli ZY-1 (ECO-3 (Table 3))) was “S” in each case.

As to `O=C(N[C@H](CO)[C@H](O)c1ccc([N+](=O)[O-])cc1)C(Cl)Cl` [Chloramphenicol], the Drug sensitivity entry (in [1]; in assay [2] (KP-2 (Table 3)); in assay [2] (KP-2 (table of Example 3)); in assay [3] (AB-1 (Table 3)); in [3] (AB-1 (table of Example 3)); with AB-2: A. baumannii 0361#) was “R” throughout. Moreover, the Drug sensitivity entry is listed as “R” in assay [5]; “R” in assay [7]; “R” in the assay with ECL-2: E. cloacae 2301# (ECL-2 (Table 3)); “R” with ECL-2: E. cloacae 2301# (ECL-2 (table of Example 3)); “S” in [6] (ECO-1 (Table 3)); “S” in assay [6] (ECO-1 (table of Example 3)). Also, the Drug sensitivity result with ECO-2: E. coli 2219#, with ECO-3: E. coli ZY-1 (E. coli ZY-1 (Table 7)) and in the assay on ECO-3: E. coli ZY-1 (ECO-3 (Table 3)) was “S” throughout.
